# Assay results reported in article PMC7827406, “Structure–Activity Relationship (SAR) Study of Spautin-1 to Entail the Discovery of Novel NEK4 Inhibitors” (International Journal of Molecular Sciences, 2021).
# Like-named read-outs stand apart in the source and are kept apart here.
# Legend:
# Experiment in all cases: biochemical
# Parameters in all cases: Eurofins KinaseProfiler full panel at Km ATP, residual kinase activity (%) relative to DMSO
# [1] = target: CDK2/cyclinA(h) (Homo sapiens, UniProt P24941)
# Outline: (§1)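 Radiometric kinase activity assays were run with ATP at Km and compounds at 10 µM, and remaining activity (%) was reported. A separate competitive binding screen measured DNA-tagged kinase displaced from immobilized active-site ligands by qPCR, giving percent kinase still bound at 10 µM compound in DMSO.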
# [2] = target: SIK3(h) (Homo sapiens, UniProt Q9Y2K2)
# Outline: as §1
# [3] = target: T1, MINK(h) (Homo sapiens, UniProt Q8N4C8)
# T1 construct: gene MINK1
# Outline: as §1
# [4] = target: T2, ZAK(h) (Homo sapiens, UniProt Q9NYL2)
# T2 construct: gene MAP3K20
# Outline: as §1
# [5] = target: T3, p70S6K(h) (Homo sapiens, UniProt P23443)
# T3 construct: gene RPS6KB1
# Outline: as §1
# [6] = target: T4, EphB3(h) (Homo sapiens, UniProt P54753)
# T4 sequence (P54753 1-998): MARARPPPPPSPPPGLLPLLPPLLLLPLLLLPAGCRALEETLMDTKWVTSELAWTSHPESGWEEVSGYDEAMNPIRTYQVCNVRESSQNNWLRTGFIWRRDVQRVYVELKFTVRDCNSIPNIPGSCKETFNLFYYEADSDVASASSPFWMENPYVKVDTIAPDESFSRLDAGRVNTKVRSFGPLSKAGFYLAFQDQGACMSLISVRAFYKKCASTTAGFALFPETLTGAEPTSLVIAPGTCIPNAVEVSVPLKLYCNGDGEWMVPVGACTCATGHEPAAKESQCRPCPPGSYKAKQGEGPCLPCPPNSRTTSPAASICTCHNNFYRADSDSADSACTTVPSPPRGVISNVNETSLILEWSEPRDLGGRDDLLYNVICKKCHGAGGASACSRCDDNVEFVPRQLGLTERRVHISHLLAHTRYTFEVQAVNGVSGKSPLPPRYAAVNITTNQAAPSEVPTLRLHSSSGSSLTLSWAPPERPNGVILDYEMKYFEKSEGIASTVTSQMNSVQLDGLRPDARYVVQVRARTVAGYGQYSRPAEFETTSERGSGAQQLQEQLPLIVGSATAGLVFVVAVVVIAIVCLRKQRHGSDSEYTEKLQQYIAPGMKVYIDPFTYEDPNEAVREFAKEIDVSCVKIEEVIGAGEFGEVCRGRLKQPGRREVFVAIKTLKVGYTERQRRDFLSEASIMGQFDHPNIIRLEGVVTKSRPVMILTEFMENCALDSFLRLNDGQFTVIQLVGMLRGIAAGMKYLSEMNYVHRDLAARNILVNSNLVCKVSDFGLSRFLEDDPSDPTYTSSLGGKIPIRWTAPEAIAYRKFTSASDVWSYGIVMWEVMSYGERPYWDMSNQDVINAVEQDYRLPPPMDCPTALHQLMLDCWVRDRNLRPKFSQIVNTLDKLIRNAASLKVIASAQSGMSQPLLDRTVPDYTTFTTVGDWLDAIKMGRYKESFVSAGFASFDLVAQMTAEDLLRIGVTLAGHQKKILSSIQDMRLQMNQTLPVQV
# Outline: as §1
# [7] = target: T5, PDHK4(h) (Homo sapiens, UniProt Q16654)
# T5 construct: gene PDK4
# Outline: as §1
# [8] = read-out: Residual activity (%) 5at
# [9] = read-out: Residual activity (%) 5as
# [10] = read-out: Residual activity (%) 5ay
# [11] = read-out: Residual activity (%) Spautin-1 5aa
# T5 sequence (Q16654 whole entry): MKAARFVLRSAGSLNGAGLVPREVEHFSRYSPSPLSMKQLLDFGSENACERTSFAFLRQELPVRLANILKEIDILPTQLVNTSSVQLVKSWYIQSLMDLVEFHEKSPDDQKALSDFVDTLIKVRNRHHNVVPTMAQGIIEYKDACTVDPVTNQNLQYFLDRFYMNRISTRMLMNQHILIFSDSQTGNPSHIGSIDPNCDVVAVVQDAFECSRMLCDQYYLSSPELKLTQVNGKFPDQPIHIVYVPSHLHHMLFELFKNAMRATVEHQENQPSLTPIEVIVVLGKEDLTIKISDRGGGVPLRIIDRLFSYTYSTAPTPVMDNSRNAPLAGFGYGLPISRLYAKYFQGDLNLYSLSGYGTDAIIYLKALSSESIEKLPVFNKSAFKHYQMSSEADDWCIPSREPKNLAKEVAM
# T1 sequence (Q8N4C8 whole entry): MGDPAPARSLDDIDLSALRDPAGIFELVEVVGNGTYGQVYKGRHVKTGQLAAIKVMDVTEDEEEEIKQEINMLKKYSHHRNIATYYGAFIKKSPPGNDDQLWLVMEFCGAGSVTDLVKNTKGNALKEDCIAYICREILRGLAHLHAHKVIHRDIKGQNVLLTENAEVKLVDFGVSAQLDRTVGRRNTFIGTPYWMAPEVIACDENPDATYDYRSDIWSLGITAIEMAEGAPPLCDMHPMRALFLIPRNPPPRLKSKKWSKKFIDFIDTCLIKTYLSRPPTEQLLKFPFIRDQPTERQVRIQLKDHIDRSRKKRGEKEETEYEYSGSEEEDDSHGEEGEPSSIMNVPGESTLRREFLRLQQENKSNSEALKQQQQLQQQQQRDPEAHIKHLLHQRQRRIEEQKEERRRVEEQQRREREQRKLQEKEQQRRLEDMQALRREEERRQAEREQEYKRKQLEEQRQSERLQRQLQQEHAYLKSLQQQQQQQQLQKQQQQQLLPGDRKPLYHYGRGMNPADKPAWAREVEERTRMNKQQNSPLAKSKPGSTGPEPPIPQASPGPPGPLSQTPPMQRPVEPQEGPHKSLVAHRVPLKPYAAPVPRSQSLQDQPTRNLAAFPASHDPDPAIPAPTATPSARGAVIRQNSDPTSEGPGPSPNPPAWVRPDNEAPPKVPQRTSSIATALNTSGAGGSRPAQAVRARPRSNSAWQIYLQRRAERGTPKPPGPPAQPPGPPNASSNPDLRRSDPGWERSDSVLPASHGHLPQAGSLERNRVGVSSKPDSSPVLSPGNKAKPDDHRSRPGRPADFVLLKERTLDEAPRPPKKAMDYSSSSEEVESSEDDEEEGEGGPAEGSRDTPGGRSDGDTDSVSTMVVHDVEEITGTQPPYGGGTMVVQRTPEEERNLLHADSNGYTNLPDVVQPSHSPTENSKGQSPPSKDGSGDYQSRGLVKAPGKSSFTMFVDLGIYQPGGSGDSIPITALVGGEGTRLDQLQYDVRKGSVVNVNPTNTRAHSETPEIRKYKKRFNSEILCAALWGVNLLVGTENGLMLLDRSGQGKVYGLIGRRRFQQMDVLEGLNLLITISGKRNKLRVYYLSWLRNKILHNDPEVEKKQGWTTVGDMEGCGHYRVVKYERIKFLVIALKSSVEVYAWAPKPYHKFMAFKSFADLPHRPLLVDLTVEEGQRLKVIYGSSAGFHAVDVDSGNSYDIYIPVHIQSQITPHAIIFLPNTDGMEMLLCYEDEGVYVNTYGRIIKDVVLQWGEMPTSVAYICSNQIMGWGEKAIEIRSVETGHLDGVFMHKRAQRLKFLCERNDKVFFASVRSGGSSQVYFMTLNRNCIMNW
# T3 sequence (P23443 whole entry): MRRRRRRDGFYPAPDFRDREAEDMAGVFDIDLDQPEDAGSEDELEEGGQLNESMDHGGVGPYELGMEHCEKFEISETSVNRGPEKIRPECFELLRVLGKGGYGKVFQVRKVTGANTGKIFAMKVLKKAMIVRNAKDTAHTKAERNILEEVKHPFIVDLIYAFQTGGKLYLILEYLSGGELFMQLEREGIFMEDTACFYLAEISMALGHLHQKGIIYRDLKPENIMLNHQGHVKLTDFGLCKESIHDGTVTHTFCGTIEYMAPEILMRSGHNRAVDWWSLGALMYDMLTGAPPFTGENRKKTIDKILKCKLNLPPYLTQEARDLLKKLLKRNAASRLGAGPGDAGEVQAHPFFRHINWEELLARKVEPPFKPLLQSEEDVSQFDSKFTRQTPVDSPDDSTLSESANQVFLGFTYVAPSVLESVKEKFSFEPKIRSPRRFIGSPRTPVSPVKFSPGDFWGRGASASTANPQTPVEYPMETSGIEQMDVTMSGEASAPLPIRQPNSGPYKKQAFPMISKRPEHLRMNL
# T2 sequence (Q9NYL2 whole entry): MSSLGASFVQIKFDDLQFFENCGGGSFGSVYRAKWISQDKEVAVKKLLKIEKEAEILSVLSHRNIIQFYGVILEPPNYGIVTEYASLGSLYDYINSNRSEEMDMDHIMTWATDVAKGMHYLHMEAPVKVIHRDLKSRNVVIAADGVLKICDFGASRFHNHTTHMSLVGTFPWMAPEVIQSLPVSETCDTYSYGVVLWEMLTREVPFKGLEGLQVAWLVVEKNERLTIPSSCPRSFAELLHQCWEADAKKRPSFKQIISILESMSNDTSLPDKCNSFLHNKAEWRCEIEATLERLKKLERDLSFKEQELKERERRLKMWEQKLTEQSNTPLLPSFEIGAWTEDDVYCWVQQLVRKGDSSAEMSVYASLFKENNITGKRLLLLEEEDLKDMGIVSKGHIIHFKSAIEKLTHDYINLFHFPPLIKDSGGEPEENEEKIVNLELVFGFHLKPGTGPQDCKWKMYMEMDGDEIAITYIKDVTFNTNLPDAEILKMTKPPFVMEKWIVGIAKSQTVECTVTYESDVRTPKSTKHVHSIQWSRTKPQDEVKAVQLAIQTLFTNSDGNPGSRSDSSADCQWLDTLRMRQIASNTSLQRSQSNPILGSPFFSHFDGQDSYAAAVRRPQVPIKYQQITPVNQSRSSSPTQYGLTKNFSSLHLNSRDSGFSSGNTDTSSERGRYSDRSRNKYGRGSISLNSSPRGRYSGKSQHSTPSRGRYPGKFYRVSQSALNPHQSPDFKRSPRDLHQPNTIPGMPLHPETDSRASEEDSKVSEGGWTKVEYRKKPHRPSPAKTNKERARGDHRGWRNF
# Sequence of SIK3(h) (Q9Y2K2 whole entry): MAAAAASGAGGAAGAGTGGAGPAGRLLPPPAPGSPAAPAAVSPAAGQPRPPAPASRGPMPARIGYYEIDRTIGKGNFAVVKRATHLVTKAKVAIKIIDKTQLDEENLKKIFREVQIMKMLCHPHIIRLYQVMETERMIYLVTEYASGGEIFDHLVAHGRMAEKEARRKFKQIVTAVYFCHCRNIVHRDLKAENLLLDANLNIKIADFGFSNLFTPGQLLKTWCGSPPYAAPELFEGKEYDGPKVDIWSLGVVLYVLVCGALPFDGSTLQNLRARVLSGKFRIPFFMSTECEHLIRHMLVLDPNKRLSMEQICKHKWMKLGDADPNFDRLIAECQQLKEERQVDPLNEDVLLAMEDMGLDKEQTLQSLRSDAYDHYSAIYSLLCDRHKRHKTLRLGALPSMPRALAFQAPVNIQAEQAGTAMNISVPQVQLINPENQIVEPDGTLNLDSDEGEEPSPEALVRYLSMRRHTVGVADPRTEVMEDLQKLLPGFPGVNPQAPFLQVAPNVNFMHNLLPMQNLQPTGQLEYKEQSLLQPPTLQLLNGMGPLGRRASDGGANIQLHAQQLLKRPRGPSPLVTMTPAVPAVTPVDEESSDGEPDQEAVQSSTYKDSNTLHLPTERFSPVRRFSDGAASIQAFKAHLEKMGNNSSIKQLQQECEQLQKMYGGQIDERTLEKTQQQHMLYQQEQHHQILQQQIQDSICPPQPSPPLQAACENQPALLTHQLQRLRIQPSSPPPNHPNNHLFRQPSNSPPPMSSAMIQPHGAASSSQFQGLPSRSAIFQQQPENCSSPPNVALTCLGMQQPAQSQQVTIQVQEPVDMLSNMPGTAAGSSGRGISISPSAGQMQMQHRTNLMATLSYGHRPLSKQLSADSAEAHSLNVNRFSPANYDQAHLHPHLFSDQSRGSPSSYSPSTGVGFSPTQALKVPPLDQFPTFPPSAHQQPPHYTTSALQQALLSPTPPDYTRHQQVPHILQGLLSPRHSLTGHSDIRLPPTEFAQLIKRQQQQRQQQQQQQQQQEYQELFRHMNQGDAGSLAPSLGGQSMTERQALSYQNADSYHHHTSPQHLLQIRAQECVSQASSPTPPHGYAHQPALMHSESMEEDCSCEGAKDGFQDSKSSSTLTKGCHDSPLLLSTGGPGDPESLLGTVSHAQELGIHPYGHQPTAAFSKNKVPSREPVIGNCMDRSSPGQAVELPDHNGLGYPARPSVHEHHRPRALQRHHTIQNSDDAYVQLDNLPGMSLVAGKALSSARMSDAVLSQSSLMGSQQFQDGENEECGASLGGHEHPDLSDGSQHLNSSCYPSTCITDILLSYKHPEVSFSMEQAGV
smiles,measurement,setting,value
"Fc1ccc2ncnc(NCCc3ccc(Cl)cc3)c2c1 [5at, N-[2-(4-Chlorophenyl)Ethyl]-6-Fluoro-4-Quinazolinamine]",remaining activity at 10 µM,[1]; [8],86%
same,remaining activity at 10 µM,[2]; [8],71%
same,remaining activity at 10 µM,[3]; [8],89%
same,remaining activity at 10 µM,[4]; [8],72%
same,remaining activity at 10 µM,[5]; [8],83%
same,remaining activity at 10 µM,[6]; [8],76%
same,remaining activity at 10 µM,[7]; [8],101%
"Fc1ccc(CCNc2ncnc3ccc(F)cc23)cc1 [5as, 6-Fluoro-N-[2-(4-Fluorophenyl)Ethyl]-4-Quinazolinamine]",remaining activity at 10 µM,[1]; [9],82%
same,remaining activity at 10 µM,[2]; [9],79%
same,remaining activity at 10 µM,[3]; [9],88%
same,remaining activity at 10 µM,[4]; [9],61%
same,remaining activity at 10 µM,[5]; [9],81%
same,remaining activity at 10 µM,[6]; [9],79%
same,remaining activity at 10 µM,[7]; [9],102%
"COc1ccc2ncnc(Nc3cccc(F)c3)c2c1 [5ay, N-(3-Fluorophenyl)-6-Methoxy-4-Quinazolinamine]",remaining activity at 10 µM,[1]; [10],83%
same,remaining activity at 10 µM,[2]; [10],81%
same,remaining activity at 10 µM,[3]; [10],67%
same,remaining activity at 10 µM,[4]; [10],61%
same,remaining activity at 10 µM,[5]; [10],76%
same,remaining activity at 10 µM,[6]; [10],84%
same,remaining activity at 10 µM,[7]; [10],104%
"Fc1ccc(CNc2ncnc3ccc(F)cc23)cc1 [5aa, 6-Fluoro-N-(4-fluorobenzyl)-4-Quinazolinamine]",remaining activity at 10 µM,[1]; [11],95%
same,remaining activity at 10 µM,[2]; [11],95%
same,remaining activity at 10 µM,[3]; [11],86%
same,remaining activity at 10 µM,[4]; [11],70%
same,remaining activity at 10 µM,[5]; [11],91%
same,remaining activity at 10 µM,[6]; [11],93%
same,remaining activity at 10 µM,[7]; [11],106%
